Test system: carbachol spasm of the rat stomach
Test: carbachol spasm of the rat stomach (stomach-spasmolytic effect)
Format: in vivo
Conditions: intraduodenal, relative to Ranitidin
Text: The test substances are applied intraduodenally. In this model, the stomach-spasmolytic effect of the compound according to Example 1 is, for example 3.8 times greater than that of "Ranitidin".

CNC(=C[N+](=O)[O-])NCCSCc1ccc(CNC2C3CC4C(C3)C42)o1 (stereo not shown) [Example 1, N-[2-[[5-(tricyclo(2.2.1.0^2.6)hept-3-yl-amino-methyl)-2-furanyl]-methylthio]-ethyl]-N'-methyl-2-nitro-1,1-ethylene-diamine]
stomach-spasmolytic effect, times greater than that of Ranitidin: 3.8 times
